Values of other authors as cited in US20260216238A1, “TETRATHIOMOLYBDIC ACID FOR USE IN TREATING COPPER METABOLISM-ASSOCIATED DISEASES OR DISORDERS (WILSON DISEASE)” (Alexion Pharmaceuticals, Inc., priority 2023, published 2026).

System: patients with Wilson disease (WD)
Details: cited from earlier work; for patients with worsening of neurological symptoms on initiation of treatment: in vivo

Compound | patients with worsening of neurological symptoms on initiation of treatment | patients with gastric irritation or gastritis (Schilsky et al., 2022) | hepatic treatment failure (long-term follow-up (Weiss et al., 2011)) | patients with severe side effects requiring drug withdrawal (Schilsky et al., 2022)
NCCNCCNCCN [trientine, N′-[2-(2-aminoethylamino)ethyl]ethane-1,2-diamine] | approximately 25% | – | – | –
[Zn] [zinc] | – | ~ ⅓ | 14/88 | –
CC(C)(S)[C@@H](N)C(=O)O [penicillamine, (2S)-2-amino-3-methyl-3-sulfanylbutanoic acid] | approximately 25% | – | – | approximately 30%
